Measured values taken from PMC11460631, “Inhibition of transient receptor potential vanilloid 3 channels by antimalarial hydroxychloroquine alleviates TRPV3-dependent dermatitis” (The Journal of Biological Chemistry, 2024).

How the values were obtained:
TRPV3 Y594F mutation = biological target: T1, TRPV3 Y594F mutation (Homo sapiens, UniProt Q8NET8, Y594F); experiment: Whole-cell recording of TRPV3 Y594F mutant; type: cell-based; conditions: 1 mM 2-APB, ± 80 mV
T1 construct: YFP or GFP; expressed in transfected cells; host or cells: HEK293T
T1 sequence (Q8NET8 1-790 Y594F): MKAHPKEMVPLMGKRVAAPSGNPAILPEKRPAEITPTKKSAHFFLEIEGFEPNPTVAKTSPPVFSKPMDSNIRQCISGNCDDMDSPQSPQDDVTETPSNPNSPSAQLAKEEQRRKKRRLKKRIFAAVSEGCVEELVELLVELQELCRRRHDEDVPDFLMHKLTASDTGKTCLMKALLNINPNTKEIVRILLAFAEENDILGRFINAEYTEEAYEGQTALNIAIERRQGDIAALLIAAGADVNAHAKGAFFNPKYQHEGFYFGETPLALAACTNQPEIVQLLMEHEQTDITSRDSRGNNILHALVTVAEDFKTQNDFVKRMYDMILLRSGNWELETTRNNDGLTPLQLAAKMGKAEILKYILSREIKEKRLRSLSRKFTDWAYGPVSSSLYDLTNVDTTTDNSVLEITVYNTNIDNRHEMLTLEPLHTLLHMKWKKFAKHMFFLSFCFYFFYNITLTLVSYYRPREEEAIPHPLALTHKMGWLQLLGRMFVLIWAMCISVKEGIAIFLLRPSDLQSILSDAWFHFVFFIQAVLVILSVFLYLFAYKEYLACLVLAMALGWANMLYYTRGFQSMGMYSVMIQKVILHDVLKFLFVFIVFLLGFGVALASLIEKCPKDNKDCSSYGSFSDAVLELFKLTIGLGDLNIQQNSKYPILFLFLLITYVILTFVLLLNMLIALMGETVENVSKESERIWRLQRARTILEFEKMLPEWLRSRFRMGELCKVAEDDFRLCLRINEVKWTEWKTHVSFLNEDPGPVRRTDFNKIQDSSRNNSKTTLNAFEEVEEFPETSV
Description: As we mentioned above, HCQ may act as a pore blocker of TRPV3. To probe the binding configuration of HCQ to TRPV3, we carried out molecular docking using Rosetta suite (https://rosettacommons.org) ([21]) and validated the docking models with point mutations in TRPV3 (Fig. 4A). […] Furthermore, when we introduced L670A to L591A mutant, we also observed a left shift on the concentration–response curve on this double mutant as compared to L591A mutant (Fig. 4H).
Figure 4 Residues of the pore domain are critical for HCQ inhibition on TRPV3.A, left panel, docking model of HCQ to the pore domain of TRPV3 structure (6uw4). Right panels, top view and side view of the HCQ-binding pocket. B-J, representative whole-cell recording of TRPV3 and mutants in response to 1 mM 2-APB, the mixture of 1 mM 2-APB and concentration gradients of HCQ with the holding potential of ± 80 mV. K, concentration–response curves of HCQ in WT TRPV3 and mutants (n = 3–5 cells). L, quantification of the inhibitory ratio of HCQ (100 μM) on WT, L591A, and N671Q. […]
All data from whole-cell recordings were analyzed in Igor Pro (WaveMetrics). IC50 values were determined by fitting the Hill equation to concentration-response relationships. […]

mTRPV4 = biological target: T2, mTRPV4 (Mus musculus, UniProt Q9EPK8); experiment: Whole-cell current recordings, mTRPV4; type: cell-based, murine; conditions: 100 μM HCQ; current activated by 1 μM GSK1016790A
T2 construct: YFP or GFP; expressed in transfected cells; host or cells: HEK293T
T2 sequence (Q9EPK8 whole entry): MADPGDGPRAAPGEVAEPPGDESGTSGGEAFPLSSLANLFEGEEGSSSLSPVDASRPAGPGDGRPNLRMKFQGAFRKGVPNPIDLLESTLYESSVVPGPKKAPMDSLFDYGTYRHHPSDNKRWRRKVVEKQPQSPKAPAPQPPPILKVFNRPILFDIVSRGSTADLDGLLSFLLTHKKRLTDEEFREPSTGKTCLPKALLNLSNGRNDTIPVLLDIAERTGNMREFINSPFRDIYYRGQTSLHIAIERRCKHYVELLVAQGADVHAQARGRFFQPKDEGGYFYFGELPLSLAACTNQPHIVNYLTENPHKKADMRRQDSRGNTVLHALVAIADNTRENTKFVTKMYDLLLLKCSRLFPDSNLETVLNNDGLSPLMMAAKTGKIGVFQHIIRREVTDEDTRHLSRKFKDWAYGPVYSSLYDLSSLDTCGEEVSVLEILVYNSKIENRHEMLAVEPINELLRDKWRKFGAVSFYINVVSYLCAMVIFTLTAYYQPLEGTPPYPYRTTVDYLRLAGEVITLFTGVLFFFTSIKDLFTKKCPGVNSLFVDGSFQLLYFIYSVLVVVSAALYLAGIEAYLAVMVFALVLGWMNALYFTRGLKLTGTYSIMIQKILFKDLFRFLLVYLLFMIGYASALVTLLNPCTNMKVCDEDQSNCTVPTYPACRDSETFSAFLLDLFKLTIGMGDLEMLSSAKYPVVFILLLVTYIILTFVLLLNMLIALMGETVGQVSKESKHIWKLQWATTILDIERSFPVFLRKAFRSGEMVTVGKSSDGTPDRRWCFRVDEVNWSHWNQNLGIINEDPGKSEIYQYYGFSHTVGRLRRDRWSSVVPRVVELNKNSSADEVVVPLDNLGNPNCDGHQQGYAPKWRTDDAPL
Procedure: To elucidate the specificity of HCQ inhibition on TRPV3, we conducted whole-cell current recordings on other known pruritus-related TRP channels, such as hTRPA1, mTRPV1, mTRPV4, and mTRPM8 (Fig. 3, A and F). […] Because of the relatively larger inhibition of HCQ on mTRPM8 current, we tested the concentration dependence of HCQ on mTRPM8 channels.
HEK293T cells are cultured using Dulbecco's modified Eagle's medium containing 10% fetal bovine serum and 1% penicillin-streptomycin in a cell incubator with 5% CO2 at 37 °C. Plasmids of murine TRPV1, TRPV4, TRPM8, and human TRPV3, TRPA1 are labeled with YFP or GFP as indicators for subsequent electrophysiological recordings. Complementary DNA constructs of ion channels were transiently transfected with Lipofectamine 3000 (Invitrogen). And 12 to 18 h after transient transfection, electrophysiological recordings were performed.
Patch-clamp recordings were carried out with a HEKA EPC10 amplifier controlled by PatchMaster software (HEKA; https://www.heka.com/products/products_main.html#soft_pm) ([36]). Patch pipettes were prepared from borosilicate glass and fire-polished to the resistance of 3 to 8 MΩ by P-97 puller for whole-cell recordings. For single-channel recordings, patch pipettes were fire-polished to a higher resistance of 6 to 10 MΩ. […]

- IC50 (TRPV3 Y594F mutation): 34.8 ± 1.59 µM
- reduction of mTRPV4 current (mTRPV4): 18.37% ± 11.21%
Compound: CCN(CCO)CCCC(C)Nc1ccnc2cc(Cl)ccc12 (centres unmarked) [HCQ, hydroxychloroquine]
